According to US20260274892A1, “MACROCYCLIC BROAD SPECTRUM ANTIBIOTICS” (RQx Pharmaceuticals, Inc., priority 2017, published 2026):

Tested on: Escherichia coli ATCC 25922
Test: Minimum inhibitory concentration (MIC), CLSI broth micro-dilution, E. coli
Type: cell-based
Details: Escherichia coli
Procedure, shortened: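 Antibacterial potency is measured as MIC by the CLSI broth dilution method. Bacteria at OD600 0.0005 in Tween-80-supplemented cation-adjusted Mueller Hinton broth face ten twofold compound dilutions for 22 h at 35° C.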

[1] = ATCC25922, Table 6, cation adjusted Mueller Hinton Broth + 0.002% Tween-80, 35° C., 22 hours

Cc1nc(-c2ccc(OC3CCCCC3)cc2)nc(C)c1C(=O)N[C@@H](CCNC(=O)CO)C(=O)N(C)[C@@H]1C(=O)N[C@@H](C)C(=O)N[C@H](C(=O)NCC#N)Cc2ccc(OCCN)c(c2)-c2cc1ccc2OCCN [Compound 511, (8S,11S,14S)-3,18-bis(2-aminoethoxy)-N-(cyanomethyl)-14-[[(2S)-2-[[2-[4-(cyclohexoxy)phenyl]-4,6-dimethyl-pyrimidine-5-carbonyl]amino]-4-[(2-hydroxyacetyl)amino]butanoyl]-methyl-amino]-11-methyl-10,13-dioxo-9,12-diazatricyclo[13.3.1.12,6]icosa-1(18),2(20),3,5,15(19),16-hexaene-8-carboxamide]
MIC [1]: 2 µM

Cc1nc(-c2ccc(OC3CCCCC3)cc2)nc(C)c1C(=O)N[C@@H](CC(N)=O)C(=O)N(C)[C@@H]1C(=O)N[C@@H](C)C(=O)N[C@H](C(=O)NCC#N)Cc2ccc(OCCN)c(c2)-c2cc1ccc2OCCN [Compound 506, (2S)-N-[(7S,10S,13S)-3,18-bis(2-aminoethoxy)-13-(cyanomethylcarbamoyl)-10-methyl-8,11-dioxo-9,12-diazatricyclo[13.3.1.12,6]icosa-1(19),2,4,6(20),15,17-hexaen-7-yl]-2-[[2-[4-(cyclohexoxy)phenyl]-4,6-dimethyl-pyrimidine-5-carbonyl]amino]-N-methyl-butanediamide]
MIC [1]: 0.83 µM

CNC(=N)NCCOc1ccc2cc1-c1cc(ccc1OCCNC(=N)NC)[C@H](N(C)C(=O)[C@H](CCN)NC(=O)c1c(C)nc(-c3ccc(C(C)(C)C)cc3)nc1C)C(=O)N[C@@H](C)C(=O)N[C@H](C(=O)NCC#N)C2 (racemic) [Compound 441, rac-(8S,11S,14S)-N-(cyanomethyl)-11-methyl-3,18-bis[2-[(N-methylcarbamimidoyl)amino]ethoxy]-14-[methyl-[rac-(2S)-4-amino-2-[[2-(4-tert-butylphenyl)-4,6-dimethyl-pyrimidine-5-carbonyl]amino]butanoyl]amino]-10,13-dioxo-9,12-diazatricyclo[13.3.1.12,6]icosa-1(18),2(20),3,5,15(19),16-hexaene-8-carboxamide]
MIC [1]: 0.38 µM

Cc1nc(-c2ccc(C(C)(C)C)cc2)ncc1C(=O)N[C@@H](CCNC=O)C(=O)N(C)[C@@H]1C(=O)N[C@@H](C)C(=O)N[C@H](C(=O)NCC#N)Cc2ccc(OCCN)c(c2)-c2cc1ccc2OCCN (racemic) [Compound 494, rac-(8S,11S,14S)-3,18-bis(2-aminoethoxy)-N-(cyanomethyl)-11-methyl-14-[methyl-[rac-(2S)-2-[[2-(4-tert-butylphenyl)-4-methyl-pyrimidine-5-carbonyl]amino]-4-formamido-butanoyl]amino]-10,13-dioxo-9,12-diazatricyclo[13.3.1.12,6]icosa-1(18),2(20),3,5,15(19),16-hexaene-8-carboxamide]
MIC [1]: 1.1 µM

Cc1nc(-c2ccc(OC3CCCCC3)cc2)nc(C)c1C(=O)N[C@@H](CCNC(=O)NO)C(=O)N(C)[C@@H]1C(=O)N[C@@H](C)C(=O)N[C@H](C(=O)NCC#N)Cc2ccc(OCCN)c(c2)-c2cc1ccc2OCCN [Compound 512, (8S,11S,14S)-3,18-bis(2-aminoethoxy)-N-(cyanomethyl)-14-[[(2S)-2-[[2-[4-(cyclohexoxy)phenyl]-4,6-dimethyl-pyrimidine-5-carbonyl]amino]-4-(hydroxycarbamoylamino)butanoyl]-methyl-amino]-11-methyl-10,13-dioxo-9,12-diazatricyclo[13.3.1.12,6]icosa-1(18),2(20),3,5,15(19),16-hexaene-8-carboxamide]
MIC (ATCC25922, 22 h, Table 6, cation adjusted Mueller Hinton Broth + 0.002% Tween-80, 35° C.): 1 µM
